Reference: US10472333B2, “P2X4 receptor antagonist” (NIPPON CHEMIPHAR CO., LTD., priority 2013, dated 2019)
Structures can show the parent of a compound that is named as a salt.

What follows are compounds tested against T1, human P2X4 receptor (Homo sapiens, UniProt Q99571) (assay: P2X4 receptor antagonist activity, ATP-induced intracellular calcium (Fura-2 AM) in 1321N1 cells stably expressing human P2X4 receptor). Settings: not given.
T1 sequence (Q99571 1-388): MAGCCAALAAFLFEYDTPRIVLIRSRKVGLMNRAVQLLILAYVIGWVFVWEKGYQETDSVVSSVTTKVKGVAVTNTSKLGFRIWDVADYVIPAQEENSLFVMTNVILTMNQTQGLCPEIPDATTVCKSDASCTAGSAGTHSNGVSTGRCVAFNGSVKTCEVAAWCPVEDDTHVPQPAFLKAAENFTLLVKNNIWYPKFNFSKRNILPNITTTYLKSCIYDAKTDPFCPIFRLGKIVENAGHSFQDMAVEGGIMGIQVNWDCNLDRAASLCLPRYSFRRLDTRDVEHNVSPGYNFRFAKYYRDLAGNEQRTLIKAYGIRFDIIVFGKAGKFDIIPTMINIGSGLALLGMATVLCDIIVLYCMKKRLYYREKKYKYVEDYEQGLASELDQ
Format: cell-based

Compound | IC50 [nM]
O=C1CN=C(c2ccc(NC(=O)c3cccnc3N3CCCC3)cc2)c2ccc3ccccc3c2N1 [Example 21, N-[4-(2-Oxo-2,3-dihydro-1H-naphtho[1,2-e][1,4]-diazepin-5-yl)phenyl]-2-(pyrrolidin-1-yl)nicotinamide dihydrochloride] | 1300
CCc1ncccc1C(=O)Nc1ccc(C2=NCC(=O)Nc3c2ccc2ccccc32)cc1 [Example 3, 2-Ethyl-N-[4-(2-oxo-2,3-dihydro-1H-naphtho[1,2-e][1,4]-diazepin-5-yl)phenyl]nicotinamide dihydrochloride] | 1600
CCc1cccc(O)c1C(=O)Nc1ccc(C2=NCC(=O)Nc3c2ccc2ccccc32)cc1 [Example 4, 2-Ethyl-6-hydroxy-N-[4-(2-oxo-2,3-dihydro-1H-naphtho[1,2-e][1,4]-diazepin-5-yl)phenyl]benzamide] | 1500
O=C1CN=C(c2ccc(NC(=O)c3cccnc3N3CCOCC3)cc2)c2ccc3ccccc3c2N1 [Example 20, 2-(Morpholin-4-yl)-N-[4-(2-oxo-2,3-dihydro-1H-naphtho[1,2-e][1,4]-diazepin-5-yl)phenyl]nicotinamide dihydrochloride] | 2500
CC(C)Nc1ncccc1C(=O)Nc1ccc(C2=NCC(=O)Nc3c2ccc2ccccc32)cc1 [Example 24, 2-(Isopropylamino)-N-[4-(2-oxo-2,3-dihydro-1H-naphtho[1,2-e][1,4]diazepin-5-yl)phenyl]nicotinamide dihydrochloride] | 8600
COc1ccccc1CC(=O)Nc1ccc(C2=NCC(=O)Nc3c2ccc2ccccc32)cc1 [Example 7, 2(2-Methoxyphenyl)-N-[4-(2-oxo-2,3-dihydro-1H-naphtho[1,2-e][1,4]-diazepin-5-yl)phenyl]acetamide] | 970
CN(C)c1ccncc1C(=O)Nc1ccc(C2=NCC(=O)Nc3c2ccc2ccccc32)cc1 [Example 22, 4-(Dimethylamino)-N-[4-(2-oxo-2,3-dihydro-1H-naphtho[1,2-e][1,4]diazepin-5 yl)phenyl]nicotinamide dihydrochloride] | 1500
CCc1c(O)cccc1C(=O)Nc1ccc(C2=NCC(=O)Nc3c2ccc2ccccc32)cc1 [Example 2, 2-Ethyl-3-hydroxy-N-[4-(2-oxo-2,3-dihydro-1H-naphtho[1,2-e][1,4]-diazepin-5-yl)phenyl]benzamide] | 770
O=C1CN=C(c2ccc(NC(=O)c3cccnc3-n3cccc3)cc2)c2ccc3ccccc3c2N1 [Example 19, N-[4-(2-Oxo-2,3-dihydro-1H-naphtho[1,2-e][1,4]-diazepin-5-yl)phenyl]-2-(1H-pyrrol-1-yl)nicotinamide dihydrochloride] | 2400
CC(C)c1ncccc1C(=O)Nc1ccc(C2=NCC(=O)Nc3c2ccc2ccccc32)cc1 [Example 23, 2-Isopropyl-N-[4-(2-oxo-2,3-dihydro-1H-naphtho[1,2-e][1,4]diazepin-5 yl)phenyl]nicotinamide dihydrochloride] | 2300

Same assay, conditions: Table 9; 1321N1 cells expressing human P2X4; test substance 15 minutes before ATP; read-out: Inhibitory activity IC50

Compound | IC50 [nM]
CN(C)c1ncccc1C(=O)Nc1ccc(N2C(=O)CC(=O)Nc3c2ccc2ccccc32)cc1 [Example 14, 2-(Dimethylamino)-N-[4-(2,4-dioxo-2,3-dihydro-1H-naphtho[1,2-b][1,4]diazepin-5(2H)-yl)phenyl]nicotinamide hydrochloride] | 590
CC(C)(C)c1ccccc1C(=O)Nc1ccc(N2C(=O)CC(=O)Nc3c2ccc2ccccc32)cc1F [Example 12, 2-tert-Butyl-N-[4-(2,4-dioxo-3,4-dihydro-1H-naphtho[2,1-b][1,4]diazepin-5(2H)-yl)2-fluorophenyl]benzamide] | 370

Same assay, conditions: Table 10; 1321N1 cells expressing human P2X4; test substance 15 minutes before ATP; read-out: Inhibitory activity IC50

Compound | IC50 [nM]
O=C1CC(=O)N(c2ccc(NC(=O)c3cccnc3N3CCOCC3)cc2)c2ccc3ccccc3c2N1 [Example 18, N-[4-(2,4-Dioxo-3,4-dihydro-1H-naphtho[1,2-b][1,4]-diazepin-5(2H)-yl)phenyl]-2-(morpholin-4-yl)-nicotinamide hydrochloride] | 1300
